Test results reported in US7229990B2, “Bicyclic heteroaromatic compounds” (N.V. Organon, priority 2000, dated 2007).

Molecular target: T1, human LH receptor (Homo sapiens, UniProt P22888)
T1 construct: expressed in transfected cells; host or cells: Chinese Hamster Ovary (CHO) cells, stably transfected; cotransfected with a CRE-luciferase reporter
Experiment: CHO-LH in vitro bioactivity (CRE-luciferase reporter, LH agonistic activity)
Format: cell-based
Conditions: not given
Procedure: LH agonistic activity of compounds was tested in Chinese Hamster Ovary (CHO) cells stably transfected with the human LH receptor and cotransfected with a cAMP responsive, element (CRE)/promotor directing the expression of a firefly luciferase reporter gene. Binding of ligand to the Gs-coupled LH receptor will result in an increase of cAMP, which in turn will induce an increased transactivation of the luciferase reporter construct. The luciferase signal was quantified using a luminescence counter. For test compounds, EC50 values (concentration of test compound causing half-maximal (50%) stimulation) were calculated. For that purpose the software program GraphPad PRISM, version 3.0 (GraphPad software Inc., San Diego) was used.

T1 sequence (P22888 27-699): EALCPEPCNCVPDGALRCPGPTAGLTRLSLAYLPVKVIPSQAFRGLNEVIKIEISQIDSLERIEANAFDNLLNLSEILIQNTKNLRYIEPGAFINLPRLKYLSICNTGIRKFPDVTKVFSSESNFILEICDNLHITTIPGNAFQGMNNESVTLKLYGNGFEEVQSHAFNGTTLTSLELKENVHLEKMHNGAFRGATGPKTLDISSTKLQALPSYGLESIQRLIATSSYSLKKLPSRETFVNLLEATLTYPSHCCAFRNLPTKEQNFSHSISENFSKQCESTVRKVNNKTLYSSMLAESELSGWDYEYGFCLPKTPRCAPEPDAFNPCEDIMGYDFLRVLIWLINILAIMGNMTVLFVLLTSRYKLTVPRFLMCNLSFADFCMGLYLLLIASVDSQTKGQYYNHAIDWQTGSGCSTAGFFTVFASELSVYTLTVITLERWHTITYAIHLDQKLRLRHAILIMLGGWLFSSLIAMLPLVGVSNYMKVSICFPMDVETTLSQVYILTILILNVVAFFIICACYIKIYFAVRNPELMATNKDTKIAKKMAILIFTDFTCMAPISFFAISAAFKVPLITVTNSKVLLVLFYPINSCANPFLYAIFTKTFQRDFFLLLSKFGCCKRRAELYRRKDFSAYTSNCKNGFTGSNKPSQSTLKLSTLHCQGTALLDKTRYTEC

How did the EC50 turn out when CCN(CC)C(=O)Oc1cccc(-c2nc(SC)nc3sc(C(=O)NC(C)(C)C)c(N)c23)c1 [Example 7] was run?
The EC50 was < 0.01 µM.

Same assay, conditions: CHO cells stably transfected with the human LH receptor and cotransfected with CRE/promotor firefly luciferase reporter; luciferase signal; read-out: EC50 value (concentration of test compound causing half-maximal (50%) stimulation)

Which EC50 does the source give for COC(=O)Nc1cccc(-c2nc(SC)nc3sc(C(=O)NC(C)(C)C)c(N)c23)c1 [Example 15, tert-Butyl 5-amino-2-methylthio-4-(3-(methoxycarbonylamino)-phenyl)-thieno[2,3-]pyrimidine-6-carboxamide] here?
The EC50 was < 0.01 µM.

For C=CCOC(=O)Nc1cccc(-c2nc(SC)nc3sc(C(=O)NC(C)(C)C)c(N)c23)c1 [Example 16, tert-Butyl 5-amino-2-methylthio-4-(3-(allyloxycarbonylamino)-phenyl)-thieno[2,3-d]pyrimidine-6-carboxamide], which EC50 is on record?
The EC50 was < 0.01 µM.

Which EC50 does the source give for CCOC(=O)Nc1cccc(-c2nc(SC)nc3sc(C(=O)NC(C)(C)C)c(N)c23)c1 [Example 18, tert-Butyl 5-amino-2-methylthio-4-(3-(ethoxycarbonylamino)-phenyl)-thieno[2,3-d]pyrimidine-6-carboxamide] here?
Its EC50 is < 0.01 µM.

With CSc1nc(-c2cccc(NC(=O)N3CCOCC3)c2)c2c(N)c(C(=O)NC(C)(C)C)sc2n1 [Example 21] as the compound, how does the EC50 read?
Its EC50 is < 0.01 µM.

With CSc1nc(-c2cccc(NC(=O)N3CC=CCC3)c2)c2c(N)c(C(=O)NC(C)(C)C)sc2n1 [Example 23, tert-Butyl 5-amino-2-methylthio-4-(3-(1,2,3,6-tetrahydropyridinocarbonylamino)-phenyl)-thieno[2,3-d]pyrimidine-6-carboxamide] as the compound, how does the EC50 read?
Its EC50 is < 0.01 µM.

Which EC50 does the source give for CN(C)C(=O)Nc1cccc(-c2nc(-c3ccccc3)nc3sc(C(=O)NC(C)(C)C)c(N)c23)c1 [Example 32, tert-Butyl 5-amino-2-phenyl-4-(3-((N,N-dimethylamino)-carbonylamino)-phenyl)-thieno[2,3-d]pyrimidine-6-carboxamide] here?
Its EC50 is < 0.01 µM.
